According to patent US5922727A, “Antiviral substituted pyrimidinedione homocarbocyclic nucleoside derivatives and methods for the preparation thereof and compositions containing the same as active ingredients” (Samjin Pharmaceutical Co., Ltd, priority 1996, dated 1999):
Where two headings read alike, the source gives them in different places.

Tests used:
HIV = format: cell-based; details: ratio CD50/ED50
Procedure: (§1) The anti-HIV assays were based on the inhibition of the virus-induced cytopathic effect in MT-4 cells as a described method in J. Med. Chem, 34, 357, 1991. Briefly, MT-4 cells were suspended in culture medium at 2.5×10^5 cells/ml and infected with 1000 CCID50 (50% cell culture infective dose) of HIV. Immediately, after virus infection, 100 μl of the cell suspension was brought into each well of a flat-bottomedmicrotitray containing various concentrations of the test compounds. After a 4 or 5 days incubation at 37° C., the number of viable cells was determined by the 3-(4,5-dimethylthiazol-2-yl)-2,5-diphenyltetrazolium bromide (MTT) method, as disclosed in J. Virol. Methods, 20, 309, 1988. The cytotoxicity of the compounds of the present invention was assessed in parallel with their antiviral activity. It was based on the viability of mock-infected host cells as determined by the MTT methods.

MT-4 cells = test: cytotoxicity: viability of mock-infected MT-4 host cells (MTT method); format: cell-based; set-up: unit not given here; details: mock-infected MT-4 cells
Procedure: as §1

[1] = marker a (undefined, shared with AZT^a)
[2] = marker b (undefined, shared with AZT^b)
[3] = marker c (undefined, shared with AZT^c)
[4] = marker d (undefined, shared with AZT^d)
[5] = marker e (undefined, shared with AZT^e)

Cc1cn([C@H]2C[C@H](N=[N+]=[N-])[C@@H](CO)O2)c(=O)[nH]c1=O [AZT, reference compound]
S.I. (HIV; [1]): 5,825 | S.I. (HIV; [2]): 1,123 | S.I. (HIV; [3]): 83 | S.I. (HIV; [4]): 5,500 | S.I. (HIV; [5]): 3,172 | S.I. (HIV; no run marker): 2,633 | CD50 (MT-4 cells; [1]): 1.13 | CD50 (MT-4 cells; [2]): 0.73 | CD50 (MT-4 cells; [3]): 0.057 | CD50 (MT-4 cells; [4]): 2.75 | CD50 (MT-4 cells; [5]): 1.84 | CD50 (MT-4 cells; no run marker): 1.58

CCc1c(Sc2cc(C)cc(C)c2)n(CC2CC=CC2)c(=O)[nH]c1=O [Example 2, 1-[(Cyclopent-3-en-1-yl)methyl]-5-ethyl-6-(3,5-dimethylphenylthio)-2,4-pyrimidinedione]
S.I. (HIV; no run marker): 60,930 | CD50 (MT-4 cells; no run marker): 7.86

Cc1cc(C)cc(Sc2c(C(C)C)c(=O)[nH]c(=O)n2CC2CC=CC2)c1 [Example 4, 1-[(Cyclopent-3-en-1-yl)methyl]-5-isopropyl-6-(3,5-dimethylphenylthio) -2,4-pyrimidinedione]
S.I. (HIV; [1]): 2,111 | CD50 (MT-4 cells; [1]): 11.40

CCc1c(Sc2cc(C)cc(C)c2)n(CC2=CCC(CO)C2)c(=O)[nH]c1=O (centres unmarked) [Example 7, 1-[(4-Hydroxymethylcyclopent-1-en-1-yl)methyl]-5-ethyl-6-(3,5-dimethylphenylthio)-2,4-pyrimidinedione]
S.I. (HIV; no run marker): 3,004 | CD50 (MT-4 cells; no run marker): 7.69

Cc1cc(C)cc(Sc2c(C(C)C)c(=O)[nH]c(=O)n2CC2=CCC(CO)C2)c1 (centres unmarked) [Example 9, 1-[(4-Hydroxymethylcyclopent-1-en-1-yl)methyl]-5-isopropyl-6-(3,5-di-methylphenylthio)-2,4-pyrimidinedione]
S.I. (HIV; no run marker): 16,785 | CD50 (MT-4 cells; no run marker): 8.51

CCc1c(Oc2cc(C)cc(C)c2)n(CC2CC=CC2)c(=O)[nH]c1=O [Example 14, 1-[(Cyclopent-3-en-1-yl)methyl]-5-ethyl-6-(3,5-dimethylphenoxy)-2,4-pyrimidinedione]
S.I. (HIV; [2]): 400,238 | CD50 (MT-4 cells; [2]): 16.81

Cc1cc(C)cc(Oc2c(C(C)C)c(=O)[nH]c(=O)n2CC2CC=CC2)c1 [Example 15, 1-[(Cyclopent-3-en-1-yl)methyl]-5-isopropyl-6-(3,5-dimethylphenoxy)-2,4-pyrimidinedione]
S.I. (HIV; [1]): 1,624 | CD50 (MT-4 cells; [1]): 10.07

CCc1c(C(=O)c2cc(C)cc(C)c2)n(CC2CC=CC2)c(=O)[nH]c1=O [Example 16, 1-[(Cyclopent-3-en-1-yl)methyl]-5-ethyl-6-(3,5-dimethylbenzoyl)-2,4-pyrimidinedione]
CD50 (MT-4 cells; [3]): 1.52

Cc1cc(C)cc(C(=O)c2c(C(C)C)c(=O)[nH]c(=O)n2CC2CC=CC2)c1 [Example 17, 1-[(Cyclopent-3-en-1-yl)methyl]-5-isopropyl-6-(3,5-dimethylbenzoyl)-2,4-pyrimidinedione]
S.I. (HIV; [1]): 3,615 | CD50 (MT-4 cells; [1]): 19.16

CCc1c(Oc2cc(C)cc(C)c2)n(CC2=CCC(CO)C2)c(=O)[nH]c1=O (centres unmarked) [Example 18, 1-[(4-Hydroxymethylcyclopent-1-en-1-yl)methyl]-5-ethyl-6-(3,5-dimethyl-phenoxy)-2,4-pyrimidinedione]
S.I. (HIV; no run marker): 1,131 | CD50 (MT-4 cells; no run marker): 12.78

CCc1c(Oc2cc(C)cc(C)c2)n(CC2=CCCC2CO)c(=O)[nH]c1=O (centres unmarked) [Example 19, 1-[(5-Hydroxymethylcyclopent-1-en-1-yl)methyl]-5-ethyl-6-(3,5-dimethyphenoxy)-2,4-pyrimidinedione]
S.I. (HIV; no run marker): 1,384 | CD50 (MT-4 cells; no run marker): 55.37

Cc1cc(C)cc(Sc2c(C(C)C)c(=O)[nH]c(=O)n2CC2CCCC2)c1 [Example 20, 1-[(Cyclopentyl)methyl]-5-isopropyl-6-(3,5-dimethyphenylthio)-2,4-pyrimidinedione]
S.I. (HIV; [2]): 24,264 | CD50 (MT-4 cells; [2]): 11.38

Cc1cc(C)cc(Oc2c(C(C)C)c(=O)[nH]c(=O)n2CC2CCCC2)c1 [Example 21, 1-(Cyclopentyl)methyl-5-isopropyl-6-(3,5-dimethylphenoxy)-2,4-pyrimidinedione]
S.I. (HIV; [2]): 3,089 | CD50 (MT-4 cells; [2]): 10.04

Cc1cc(C)cc(C(=O)c2c(C(C)C)c(=O)[nH]c(=O)n2CC2CCCC2)c1 [Example 22, 1-(Cyclopentyl)methyl-5-isopropyl-6-(3,5-dimethylbenzoyl)-2,4-pyrimidinedione]
CD50 (MT-4 cells; [2]): 9.97

CCc1c(C(=O)c2cc(C)cc(C)c2)n(CC2CCCC2)c(=O)[nH]c1=O [Example 23, 1-(Cyclopentyl)methyl-5-ethyl-6-(3,5-dimethylbenzoyl)-2,4-pyrimidinedione]
S.I. (HIV; [4]): > 384,615 | CD50 (MT-4 cells; [4]): > 100

CCc1c(Sc2cc(C)cc(C)c2)n(CC2=CCC(CO)(CO)C2)c(=O)[nH]c1=O [Example 25, 1-{[4-Bis(hydroxymethyl)cyclopent-1-en-1-yl]methyl}-5-ethyl-6-(3,5-dimethyl-phenylthio)-2,4-pyrimidinedione]
S.I. (HIV; no run marker): 2,762 | CD50 (MT-4 cells; no run marker): 14.64

CCc1c(C(=O)c2cc(C)cc(C)c2)n(CCC2=CCCC2)c(=O)[nH]c1=O [Example 35, 1-[2-(Cyclopent-1-en-1-yl)ethyl]-5-ethyl-6-(3,5-dimethylbenzoyl)-2,4-pyrimidinedione]
S.I. (HIV; [4]): 9,958 | CD50 (MT-4 cells; [4]): 28.58

CCc1c(C(=O)c2cc(C)cc(C)c2)n(CCC2CC=CC2)c(=O)[nH]c1=O [Example 36, 1-[2-(Cyclopent-3-en-1-yl)ethyl]-5-ethyl-6-(3,5-dimethylbenzoyl)-2,4-pyrimidinedione]
S.I. (HIV; [4]): 30,294 | CD50 (MT-4 cells; [4]): 10.30

Cc1cc(C)cc(C(=O)c2c(C(C)C)c(=O)[nH]c(=O)n2CCC2CC=CC2)c1 [Example 37, 1-[2-(Cyclopent-3-en-1-yl)ethyl]-5-isopropyl-6-(3,5-dimethylbenzoyl)-2,4-pyrimidinedione]
S.I. (HIV; [4]): 13,377 | CD50 (MT-4 cells; [4]): 9.23

CCc1c(C(=O)c2cc(C)cc(C)c2)n(CCC2C=CCC2)c(=O)[nH]c1=O (centres unmarked) [Example 40, 1-{2-(Cyclopent-2-en-1-yl)ethyl]-5-ethyl-6-(3,5-dimethylbenzoyl)-2,4-pyrimidinedione]
S.I. (HIV; [5]): > 27,346 | CD50 (MT-4 cells; [5]): 7.11

Cc1cc(C)cc(Oc2c(C(C)C)c(=O)[nH]c(=O)n2CCC2C=CCC2)c1 (centres unmarked) [Example 42, 1-[2-(Cyclopent-2-en-1-yl)ethyl]-5-isopropyl-6-(3,5-dimethylphenoxy)-2,4-pyrimidinedione]
S.I. (HIV; [5]): 2,353 | CD50 (MT-4 cells; [5]): 7.53

CCc1c(C(=O)c2cc(C)cc(C)c2)n(CCC2CCCC2)c(=O)[nH]c1=O [Example 44, 1-(2-Cyclopentyl)ethyl-5-ethyl-6-(3,5-dimethylbenzoyl)-2,4-pyrimidinedione]
S.I. (HIV; [5]): 5,958 | CD50 (MT-4 cells; [5]): 8.58

CCc1c(Sc2ccccc2)n(CC2CC2(CO)CO)c(=O)[nH]c1=O (centres unmarked) [Example 48, 1-[2-Bis(hydroxymethyl)cyclopropane-1-yl]methyl-5-ethyl-6-phenylthio-2,4-pyrimidinedione]
S.I. (HIV; [3]): 923 | CD50 (MT-4 cells; [3]): 96.95

CCc1c(Sc2cc(C)cc(C)c2)n(CC2CC2(CO)CO)c(=O)[nH]c1=O (centres unmarked) [Example 49, 1-[2-Bis(hydroxymethyl)cyclopropane-1-yl]methyl-5-ethyl-(3,5-dimethylphenylthio)-2,4-pyrimidinedione]
S.I. (HIV; [3]): 18,271 | CD50 (MT-4 cells; [3]): 21.56

CCc1c(Oc2cc(C)cc(C)c2)n(CC2CC2(CO)CO)c(=O)[nH]c1=O (centres unmarked) [Example 50, 1-[2-Bis(hydroxymethyl)cyclopropane-1-yl]methyl-5-ethyl-6-(3,5-dimethylphenoxy)-2,4-pyrimidinedione]
S.I. (HIV; [3]): 7,763 | CD50 (MT-4 cells; [3]): 111.79

CCc1c(C(=O)c2cc(C)cc(C)c2)n(CC2CC2(CO)CO)c(=O)[nH]c1=O (centres unmarked) [Example 51, 1-[2-Bis(hydroxymethyl)cyclopropane-1-yl]methyl-5-ethyl-6-(3,5-dimethylbenzoyl)-2,4-pyrimidinedione]
S.I. (HIV; [3]): 12,165 | CD50 (MT-4 cells; [3]): 128.95

CC(C)c1c(Sc2ccccc2)n(CC2CC2(CO)CO)c(=O)[nH]c1=O (centres unmarked) [Example 52, 1-[2-Bis(hydroxymethyl)cyclopropane-1-yl]methyl-5-isopropyl-6-phenylthio-2,4-pyrimidinedione]
S.I. (HIV; [3]): 1,496 | CD50 (MT-4 cells; [3]): 104.12

Cc1cc(C)cc(Sc2c(C(C)C)c(=O)[nH]c(=O)n2CC2CC2(CO)CO)c1 (centres unmarked) [Example 53, 1-[2-Bis(hydroxymethyl)cyclopropane-1-yl]methyl-5-isopropyl-6-(3,5-dimethylphenylthio)-2,4-pyrimidinedione]
S.I. (HIV; [3]): 7,199 | CD50 (MT-4 cells; [3]): 13.39

Cc1cc(C)cc(Oc2c(C(C)C)c(=O)[nH]c(=O)n2CC2CC2(CO)CO)c1 (centres unmarked) [Example 54, 1-[2-Bis(hydroxymethyl)cyclopropane-1-yl]methyl-5-isopropyl-6-(3,5-dimethylphenoxy)-2,4-pyrimidinedione]
S.I. (HIV; [3]): 3,004 | CD50 (MT-4 cells; [3]): 7.69

Cc1cc(C)cc(C(=O)c2c(C(C)C)c(=O)[nH]c(=O)n2CC2CC2(CO)CO)c1 (centres unmarked) [Example 55, 1-[2-Bis(hydroxymethyl)cyclopropane-1-yl]methyl-5-isopropyl-6-(3,5-dimethylbenzoyl)-2,4-pyrimidinedione]
S.I. (HIV; [3]): 21,806 | CD50 (MT-4 cells; [3]): 131.71
